12 compounds from patent publication US20050267303A1, “Cyclic indole and heteroindole derivatives and methods for making and using as pharmaceuticals” (Zentaris AG, priority 2001, published 2005) can be followed below.

Series [1] concerns MCF-7 (HTB22) cells. The series is described as follows: XTT cytotoxicity (proliferation) test, MCF-7. To be noted: Homo sapiens, MCF7, concentration 3.16 μg/mL, 45 h incubation, read-out: percentage inhibition MCF-7. It is filed as cell-based. The source says:
(§1) The substances D-70260, D-70744, D-80815, D-80816 and D-80819 (Examples C2.3, D4, F2, F3 and F4) were investigated in a proliferation test (Scudiero, et al., Cancer Res., 48: 4827-33, 1987) using established tumor cell lines and their anti-proliferative activity was investigated. The test used determines the mitochondrial dehydrogenase activity and enables the cell vitality and, indirectly, the cell count to be determined. The cell lines used are the human cell lines HeLa/KB (CCL17), SK-OV-3 (HTB77), MCF-7 (HTB22) and the murine leukemia cell line L1210 (CCL219). These are very well characterized and established cell lines, which were obtained from ATCC and cultured.
(§2) XTT Test for Cellular Dehydrogenase Activity
(§3) The adherent, growing, tumor cell lines HeLa/KB, SK-OV-3, MCF-7, L1210 and RKO were cultured under standard conditions in an incubator with gas inlet at 37° C., 5% carbon dioxide and 95% relative humidity. On day 1 of the experiment, the cells were detached with trypsin/EDTA and palletized by centrifuging. Subsequently, the cell pellet is re-suspended in the respective culture medium in the appropriate cell count and transferred into a 96-well microtiter plate. The plates are then cultured overnight in the incubator with gas inlet. The test substances are used as a 10 mM stock solution in DMSO and diluted on the second day of the experiment with culture medium to the appropriate concentrations. The substances in the culture medium are then added to the cells and incubated for 45 hours in the incubator with gas inlet. The cells, which were not treated with test substances, were used as controls. For the XTT-Assay, 1 mg/mL of XTT (sodium 3′-[1-(phenylaminocarbonyl)-3,4-tetrazolium]-bis(4-methoxy-6-nitro) benzenesulfonic acid) in RPMI-1640 medium was dissolved without phenol red. Additionally, a 0.383 mg/mL PMS (N-methyl dibenzopyrazine methyl sulfate) solution in phosphate buffer cell solution (PBS) was prepared. On the fourth day of the experiment, 75 μL/well of XTT-PMS mixture was pipetted onto the cell plates, which had meanwhile been incubated for 45 hours with the test substances. For this purposes, the XTT solution is mixed with the PMS solution in a ratio of 50:1 (v: v) shortly before use. Subsequently the cell plates are incubated in the incubator with gas inlet for a further three hours and the optical density (OD490nm) is determined in a photometer.
(§4) The percentage inhibition relative to the control is calculated by means of the OD490nm, which has been determined, and the activity is plotted against the log of a concentration. The IC50 is calculated from the concentration-activity curve by means of a regression analysis using the Graphpad program.

In series [2] the test system is SK-OV-3 (HTB77) cells. The series is described as follows: XTT cytotoxicity (proliferation) test, SK-OV-3. The class given is cell-based. To be noted: Homo sapiens, concentration 3.16 μg/mL, 45 h incubation, read-out: percentage inhibition SK-OV-3.
Text: as §1, §2, §3, §4

Series [3] deals with HeLa/KB (CCL17) cells. The series is described as follows: XTT cytotoxicity (proliferation) test, HeLa/KB. The class given is cell-based, human. Conditions: for anti-proliferative effect (summary in words of Table 1): 3.16 μg/mL, over cell lines HeLa/KB, SK-OV-3, MCF-7, L1210; for percentage inhibition KB/HeLa: concentration 3.16 μg/mL, 45 h incubation.
Text: as §1, §2, §3, §4
(Formazan colour is commonly taken as a measure of viable cells.)

Series [4] concerns murine leukemia cell line L1210 (CCL219). The series is described as follows: XTT cytotoxicity (proliferation) test, L1210. It is filed as cell-based. Conditions: Mus musculus, concentration 3.16 μg/mL, 45 h incubation, read-out: percentage inhibition L1210.
Text: as §1, §2, §3, §4

Series [5] can be described thus: General toxicity LD50 (i.p.). To be noted: nude, mouse, in vivo, ip, read-out: LD 50 (general toxicity). On the procedure: (§5) In order to determine the availability and effectiveness in the animal model (nude mouse), the cell lines HeLa/KB, MCF-7 and L1210 were cultured in hollow fibers, which are implanted i.p. or s.c. (Hollingshead et al., Life Sciences 57, 131-41, 1995). The test substance D-80816 is administered four times […]. in a dose of 100 mg/kg. At the end of the therapy on day 5, the fibers are explanted and the cell vitality of the tumor cells obtained is determined by means of the XTT assay. For D-80816, there is a maximum inhibition of 100% for all the cell lines and implantation cites and a general toxicity of LD50>1000 mg/kg (i.p.).

In series [6] the test system is HeLa/KB cells in hollow fibers. Briefly: Hollow fiber model in vivo (nude mouse), HeLa/KB. On the set-up: species or system human. The protocol:
as §5
(§6) Determination of the Anti-Proliferative Activity in the Hollow Fiber Model in vivo
(§7) The tumor cells lines HeLa/KB, MCF-7 and L1210 are added to polyvinylidene fluoride hollow fibers (5×10^6 cells/mL) and transplanted into the physiological compartments of the nude mouse (intraperitoneally, i.p., or subcutaneously, s.c.). A total of six hollow fibers (3 i.p. and 3 s.c.) with the respective tumor cell lines is transplanted into each experimental animal. One group of six animals is treated with the test substance (i.p. once daily for a total of 4 days) (ok?). The animals, which have been treated only with the solvent tylose, acted as control. The hollow fibers are explanted one day after the last application of substance. The proportion of metabolism-active, vital cells is determined for each hollow fiber by means of the XTT assay (see above). From this, the anti-tumor activity of the test substance is determined as the percent inhibition relative to the control.

The subject of series [7] is L1210 cells in hollow fibers. Briefly: Hollow fiber model in vivo (nude mouse), L1210. Conditions: dose 4 × 100 mg/kg i.p., explanted day 5. Further details: species or system murine. On the procedure:
as §5, §6
as §7, with “One group of six animals is treated with the test substance (i.p. once daily for a total of 4 days) (ok?). The animals, which have been treated only with the solvent tylose, acted as control. The hollow fibers are explanted one day after the last application of substance.” left out

Series [8] relates to RKOp27 cells (RKO colon carcinoma line with inducible p27Kip1). The series is described as follows: Cell cycle analysis in the RKOp27 model (XTT readout). The class given is cell-based, human. The source says:
The RKO is a human, colon carcinoma line, in which the cell cycle inhibitor p27^KiPI is induced to express by means of the Ecdyson expression system and leads to a cell cycle arrest specifically in GI (FIG. 2). A substance with non-specific activity inhibits the proliferation independently of whether the RKO cell in GI is arrested or not. On the other hand, cell cycle-specific substances, such as tubulin inhibitors, are cytotoxic only when the cells are not arrested and the cells pass through the cycle. […] Therefore, a defined, molecular, activity mechanism of D-80816 and its derivatives must be assumed. [drawing] [drawing]
Cell Cycle Analysis by Means of the RKOp27 Model
The assay is carried out in 96-well plates. The growth of the cells is arrested completely by the expression of p27^kiP1, which can be induced. […] By comparing the effectiveness of induced and not-induced cells, conclusions can be drawn concerning the mechanism of action (cell cycle specificity) of the therapeutic agents. Cells, which have […], were disseminated in an approximately 4 times higher cell count than uninduced cells, since there no longer is a division during the assay (2×10^4 cells/well induced, about 0.6×10^4 cells/well not induced). The controls are untreated cells (+/−induction). The induction is carried out with 3 μM of muristerone A. The cells are exposed on the first day (+/−muristerone A) and incubated for 24 hours at 37° C. The test substance is added on the second day (control DMSO) and the incubation is continued for a further 48 hours at 37° C., before the standard XTT assay is carried out (see above).

Series [9] concerns MCF-7 cells in hollow fibers. The series is described as follows: Hollow fiber model in vivo (nude mouse), MCF-7. Further details: species or system human. Conditions: dose 4 × 100 mg/kg i.p., explanted day 5. The protocol:
as §5, §6
as §7, with “One group of six animals is treated with the test substance (i.p. once daily for a total of 4 days) (ok?). The animals, which have been treated only with the solvent tylose, acted as control. The hollow fibers are explanted one day after the last application of substance.” left out

`COc1ccc2c(c1)cc1c(-c3ccc(Cl)cc3)nn(-c3ccccc3)c(=O)n12`: the melting point (usually the temperature of the solid-liquid transition) was 155 to 158 °C.
`COc1ccc2c(c1)cc1c(C)noc(=O)n12` [Example C2.1, 3-methyl-1,2,5-oxadiazino[4,5-α](5-methoxyindole)-6-one] yielded a melting point of 217 to 220 °C.
The same measure, in the same setting: the result for `CCc1noc(=O)n2c1cc1cc(OC)ccc12` [Example C2.2, 3-ethyl-1,2,5-oxadiazino[4,5-α](5-methoxyindole)-6-one] reads 208 to 212 °C.
The compound `COc1ccc2c(c1)cc1c(-c3ccccc3)noc(=O)n12` [Example C2.3, 3-phenyl-1,2,5-oxadiazino[4,5α](5-methoxyindole)-6-one] returned a melting point of 198 to 200 °C. Also, the inhibition (commonly the share of the control response that was lost under treatment) at 3.16 µg/mL in [1] was determined as 4.1%. The inhibition at 3.16 µg/mL in series [2] stood at 68.9%. In series [3], the “anti-proliferative effect (summary in words of Table 1)” value is given as “very potent anti-proliferative effect” and the “percentage inhibition KB/HeLa” value is recorded as 90.7%. The inhibition at 3.16 µg/mL in series [4] is 91.3%.
As to `COc1ccccc1-c1noc(=O)n2c1cc1ccccc12` [Example D1, 3-(2-methoxyphenyl)-1,2,5-oxadiazino[4,5α]indole-6-one], the melting point lay in the range of 160 to 162 °C.
Same read-out and setting: the result for `COc1cccc(-c2noc(=O)n3c2cc2ccccc23)c1` [Example D2, 3-(3-methoxyphenyl)-1,2,5-oxadiazino[4,5α]indole-6-one] reads 129 to 130 °C; that for `COc1cccc(-c2noc(=O)n3c2cc2cc(OC)ccc23)c1` [Example D3, 3-(3-methoxyphenyl)-1,2,5-oxadiazino[4,5α](5-methoxyindole)-6-one], 171 to 173 °C.
In the case of `COc1ccc2c(c1)cc1c(-c3ccc(Cl)cc3)noc(=O)n12` [Example D4, 3-(4-chlorophenyl)-1,2,5-oxadiazino[4,5α](5-methoxyindole)-6-one], the melting point was 227 to 230 °C. Moreover, in series [1], the inhibition at 3.16 µg/mL turned out to be 1.9%. For the same compound, in [2], the inhibition at 3.16 µg/mL was 55.2%. In [3], the “anti-proliferative effect (summary in words of Table 1)” value is “very potent anti-proliferative effect” and the “percentage inhibition KB/HeLa” value is given as 74.6%. Moreover, the inhibition at 3.16 µg/mL in [4] is 77.1%.
`COc1ccc2c(c1)cc1n2C(=O)C(c2ccccc2)=C1c1ccc(Cl)cc1` [Example F1, 1-(4-chlorophenyl)-6-methoxy-2-phenyl-3a-aza-cyclopenta[a]indene-3-one] had a melting point of 152 to 155 °C.
Consider `COc1cccc(C2=C(c3ccccc3)C(=O)n3c2cc2cc(OC)ccc23)c1` [Example F2, 6-methoxy-1-(3-methoxyphenyl)-2-phenyl-3a-aza-cyclopenta[a]indene-3-one], for which the melting point is 111 to 113 °C. In series [1], the inhibition at 3.16 µg/mL was determined as 8.1%. In [2], the inhibition at 3.16 µg/mL was 0%. In series [3], the “anti-proliferative effect (summary in words of Table 1)” value is reported as “do not show a significant effect” and the “percentage inhibition KB/HeLa” value was 1.7%. In addition, the inhibition at 3.16 µg/mL in series [4] was 0%.
As for `COc1cccc(C2=C(c3cccc(OC)c3)c3cc4cc(OC)ccc4n3C2=O)c1` [Example F3, 6-methoxy-1,2-bis-(3-methoxyphenyl)-3a-aza-cyclopenta[a]indene-3-one], the inhibition at 3.16 µg/mL in series [1] worked out at 18.2%. In [5], the LD50 was over 1000 mg/kg and the LD50 at 5 days was over 100 mg/kg. The “maximum inhibition in hollow fiber model” value in series [6] (all the cell lines (HeLa/KB, MCF-7, L1210) and implantation sites (i.p., s.c.), 4 × 100 mg/kg) came to 100%. The “Proliferation Inhibition in hollow Fibers, KB (i.p.)” value in [6] (fibers implanted i.p., dose 4 × 100 mg/kg i.p., explanted day 5) was determined as 100%. The “Proliferation Inhibition in hollow Fibers, KB (s.c.)” value in [6] (fibers implanted s.c., dose 4 × 100 mg/kg i.p., explanted day 5) was found to be 100%. Moreover, in series [2], the inhibition at 3.16 µg/mL came to 66.1%. The “Proliferation Inhibition in hollow Fibers, L1210 (i.p.)” value in [7] (fibers implanted i.p.) is given as 100%. Moreover, in series [7] (fibers implanted s.c.), the “Proliferation Inhibition in hollow Fibers, L1210 (s.c.)” value is reported as 100%. The “anti-proliferative effect in cells arrested in G1” value in series [8] (RKOp27 cells induced with 3 μM muristerone A (p27 expression, G1 arrest), 48 h, XTT) was “cannot be measured”. The “anti-proliferative effect in cells not induced” value in series [8] (RKOp27 cells not induced, 48 h, XTT) is on record as “concentration-dependent anti-proliferative effect”. Also, in series [8] (comparison of induced (G1-arrested) and not induced RKOp27 cells), the cell cycle-specific activity result is listed as “cell cycle-specific activity”. In series [3], the “anti-proliferative effect (summary in words of Table 1)” value is on record as “very potent anti-proliferative effect” and the “percentage inhibition KB/HeLa” value stood at 91.7%. Moreover, in [9] (fibers implanted i.p.), the “Proliferation Inhibition in hollow Fibers, MCF7 (i.p.)” value is recorded as 100%. Besides, in series [9] (fibers implanted s.c.), the “Proliferation Inhibition in hollow Fibers, MCF7 (s.c.)” value was 100%. For the same compound, in series [4], the inhibition at 3.16 µg/mL amounted to 94.7%.
In turn, `COc1ccc(C2=C(c3ccc(F)cc3)C(=O)n3c2cc2cc(OC)ccc23)cc1` [Example F4, 2-(4-florophenyl)-6-methoxy-1-(4-methoxyphenyl)-3a-aza-cyclopenta[a]indene-3-one] displayed a melting point of 157 to 160 °C. The inhibition at 3.16 µg/mL in series [1] was 0%. For the same compound, the inhibition at 3.16 µg/mL in series [2] worked out at 6.6%. In addition, in series [3], the “anti-proliferative effect (summary in words of Table 1)” value is recorded as “do not show a significant effect” and the “percentage inhibition KB/HeLa” value was 0%. Further, the inhibition at 3.16 µg/mL in series [4] came out at 21.8%.
